Values after ≈ are worked out from the molar mass of the structure shown.
Details: buffer; pH 7.4; 200.0 µM

Row | Compound | solubility kinetic [µg/mL]
1 | COc1cc(CSc2nc(-c3ccccc3)cc(=O)[nH]2)cc(OC)c1 | < 0.4
2 | N#Cc1cccc(NC(=O)CSc2cccc[n+]2[O-])c1 | > 42.8
3 | CCOc1ccc(/C=C(\C#N)C(=O)Nc2ccccn2)cc1 | 2.7 (≈ 9.2 µM)
4 | FC(F)(F)c1cccc(-n2cc(-c3ccccc3)[nH]c2=S)c1 | < 0.3
5 | Cc1oc(C(N)=O)nc1-c1ccccc1 | > 30.3
6 | CCN1CCN(C(C)CCc2ccccc2)CC1 (stereo not given) | 30.6 (≈ 124 µM)
7 | CNc1nc(=S)[nH]c2ccccc12 | > 28.7
8 | Cc1cc(C)c2nc(N(CCN(C)C)C(=O)/C=C/c3cccs3)sc2c1.Cl | 0.9
9 | N#CCc1nc2ccc(S(=O)(=O)N3CCOCC3)cc2s1 | 37.2 (≈ 115 µM)
10 | Nc1nc(-c2c(Cl)cccc2Cl)no1 | 32.7 (≈ 142 µM)
11 | CCCS(=O)(=O)Nc1cccc(-c2nc3cccnc3s2)c1 | 2.4 (≈ 7.2 µM)
12 | CCc1nc2c(c(=O)[nH]1)C(CC)(CC)Cc1ccccc1-2 | 0.7 (≈ 2.48 µM)
13 | CCOc1ccc(CNc2ccc(N3CCN(Cc4ccccc4)CC3)cc2)cc1 | 0.9 (≈ 2.24 µM)
14 | C=CCNC(=S)N1CCN(CCNC2=CC(=O)CC(C)(C)C2)CC1 | > 52.6
15 | S=C(Nc1ccccn1)Nc1ccccc1Cl | 2.1 (≈ 7.96 µM)
16 | CCc1nc2ccccc2c(=O)n1-c1ccccc1OC | > 42
17 | Cc1ccc2nc(NCC(N)=O)nc(-c3ccccc3)c2c1 | 1.4 (≈ 4.79 µM)
18 | CCn1cc(C(=O)NCCC(=O)NCCO)c(=O)c2cc3c(cc21)OCO3 | > 56.3
19 | Cc1cc(Br)c2c(c1)C1(OCCO1)C(=O)N2 | > 42.6
20 | CC(C)c1ccc(NC2CCCN(C(=O)c3cscn3)C2)cc1 (stereo not given) | > 49.4

Row | Compound | solubility kinetic [µg/mL]
21 | C=CCn1c(O)c(Cc2ccc(OCC)cc2)c(=O)[nH]c1=O | 43.7 (≈ 145 µM)
22 | O=C(Cc1c[nH]c2ccccc12)N1CCN(c2ccccc2)CC1 | 3.9 (≈ 12.2 µM)
23 | COC1=C/C(=C/c2c(O)c(C#N)c3ccccn23)C=CC1=O | 17.5 (≈ 59.9 µM)
24 | NC(=O)c1ccsc1NC(=O)CCc1ccccc1 | 37.4 (≈ 136 µM)
25 | O=C(Nc1ccccc1Cl)c1ccc(-c2ccccn2)s1 | 0.8 (≈ 2.54 µM)
26 | CCOc1ccc(NC(=O)c2ccccc2NC(=O)CNC2CCCC(C)C2C)cc1 (stereo not given) | 2.2 (≈ 5.19 µM)
27 | CC(=O)Nc1ccc(C(F)(F)F)cc1Cl | 23.1 (≈ 97.2 µM)
28 | O=C(c1cc2ccccc2oc1=O)N1CCOCC1 | > 38.9
29 | C/C(=N\O)c1ccc2c(c1)OCCO2 | > 29
30 | COC(=O)c1cc(Cl)nc2ccccc12 | 7.9 (≈ 35.6 µM)
31 | CCc1ccccc1NC(=O)CCN1C(=O)C2C3CCC(C3)C2C1=O (stereo not given) | 43 (≈ 126 µM)
32 | Cn1cccc1C(=O)NC1CCCCCC1 | > 33
33 | O=C(NCc1ccc2c(c1)OCO2)c1cc(Cl)ccc1Cl | 1.7 (≈ 5.24 µM)
34 | CC(=O)C1=C(O)C(=O)N(Cc2ccco2)C1c1ccccc1F (stereo not given) | > 47.3
35 | O=C(OCCN=C1NS(=O)(=O)c2ccccc21)c1cccc([N+](=O)[O-])c1 | 3 (≈ 7.99 µM)
36 | CC(C)c1ccc(/C=C/C(=O)NCc2ccc(S(N)(=O)=O)cc2)cc1 | 5.1 (≈ 14.2 µM)
37 | O=[N+]([O-])c1cccc(CSc2ncnc3ccccc23)c1 | 2 (≈ 6.73 µM)
38 | CSc1ccc(CNCC(O)c2ccccc2)cc1.Cl (stereo not given) | > 46.5
39 | CC(=O)Nc1ccc(S(=O)(=O)NCCc2ccccn2)cc1 | 44 (≈ 138 µM)
40 | FC(F)(F)c1ccc(Cl)c(-n2c(-c3ccco3)n[nH]c2=S)c1 | > 51.9

Row | Compound | solubility kinetic [µg/mL]
41 | Nc1c(NC=O)c(=O)n(Cc2ccccc2)c(=O)n1Cc1ccccc1 | 52.1 (≈ 149 µM)
42 | O=C(NCCNC(=O)c1ccc(Cl)cc1Cl)c1cnccn1 | 37 (≈ 109 µM)
43 | O=C(COC(=O)CC1CCCC1)Nc1ccc(OC(F)F)cc1 | 42.1 (≈ 129 µM)
44 | O=C(NCCC1=CCCCC1)C1CCN(C(=O)Cc2ccccc2)CC1 | > 53.2
45 | CCN(C(=O)c1cc(Cl)ccc1Cl)C1CCS(=O)(=O)C1 (stereo not given) | > 50.4
46 | O=C(CSc1nnc2ccccn12)Nc1ccc(N2CCOCC2)cc1 | > 55.4
47 | CCOC(=O)c1csc(NC(=O)CN2CCOCC2)n1 | > 44.9
48 | O=C1NC(=O)/C(=C\c2ccc(O)cc2O)S1 | > 35.6
49 | Cc1ccc(Oc2ncnc(N)c2[N+](=O)[O-])cc1 | 12.3 (≈ 50 µM)
50 | c1cncc(C2OCC3(CO2)COC(c2cccnc2)OC3)c1 (stereo not given) | > 47.2
51 | Nc1c(N(CCO)C(=O)C2CCCC2)c(=O)[nH]c(=O)n1Cc1ccccc1 | > 55.9
52 | CC1CCN(C(=O)CCNC(=O)c2ccccc2Cl)CC1 | 41.1 (≈ 133 µM)
53 | O=C(O)C1CCC(N2C(=O)C3C4CCC(C4)C3C2=O)CC1 (stereo not given) | > 43.7
54 | CN(C(=O)c1ccc(-c2ccccc2)cc1)C1CCCCC1 | 1.5 (≈ 5.11 µM)
55 | Cn1cnnc1SCC(=O)NC1CCCCCC1 | > 40.3
56 | Cc1ccc(NC(=O)c2cccnc2)c([N+](=O)[O-])c1 | > 38.6
57 | CC(=O)c1c(COC(=O)c2ccc(F)cc2)nc2ccccc2[n+]1[O-] | 2.4 (≈ 7.05 µM)
58 | CCOC(=O)c1cccc(NC(=O)c2cc3ccccc3o2)c1 | 0.7 (≈ 2.26 µM)
59 | CCN1CNC(=S)N(c2cccc(C)c2)C1 | > 35.3
60 | Cc1ccc(S(=O)(=O)N2CCN(C(C)CC(=O)O)CC2)cc1 (stereo not given) | 32.9 (≈ 101 µM)

Reference: PubChem BioAssay AID1996
